Among the data in ChEMBL document CHEMBL5291721, “A preclinical secondary pharmacology resource illuminates target-adverse drug reaction associations of marketed drugs” (Nat Commun, 2023) are AC50 values, retold here.

Assay [1] concerns the target 3',5'-cyclic-AMP phosphodiesterase 4D (Homo sapiens, UniProt Q08499). It is filed as functional.
The target of assay [2] is T1, Alpha-1A adrenergic receptor (Homo sapiens, UniProt P35348).
T1 sequence (P35348 whole entry): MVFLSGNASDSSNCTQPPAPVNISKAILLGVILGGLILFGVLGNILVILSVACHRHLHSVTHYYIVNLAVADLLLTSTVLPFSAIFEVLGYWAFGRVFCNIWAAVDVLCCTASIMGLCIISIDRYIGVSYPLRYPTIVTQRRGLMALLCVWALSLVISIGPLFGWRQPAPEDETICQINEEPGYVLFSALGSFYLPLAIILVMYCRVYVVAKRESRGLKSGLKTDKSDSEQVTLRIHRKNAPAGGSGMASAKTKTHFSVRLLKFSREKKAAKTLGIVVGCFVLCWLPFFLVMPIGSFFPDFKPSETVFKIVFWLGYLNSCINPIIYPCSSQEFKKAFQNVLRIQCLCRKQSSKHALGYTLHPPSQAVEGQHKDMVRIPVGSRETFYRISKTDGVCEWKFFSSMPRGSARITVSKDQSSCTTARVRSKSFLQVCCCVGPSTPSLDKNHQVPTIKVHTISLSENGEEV
It is filed as functional, cell-based.

The next assay deals with Mu-type opioid receptor (Homo sapiens, UniProt P35372). Nature of the assay: biochemical. It is filed as functional.
Chain of Mu-type opioid receptor (P35372 whole entry): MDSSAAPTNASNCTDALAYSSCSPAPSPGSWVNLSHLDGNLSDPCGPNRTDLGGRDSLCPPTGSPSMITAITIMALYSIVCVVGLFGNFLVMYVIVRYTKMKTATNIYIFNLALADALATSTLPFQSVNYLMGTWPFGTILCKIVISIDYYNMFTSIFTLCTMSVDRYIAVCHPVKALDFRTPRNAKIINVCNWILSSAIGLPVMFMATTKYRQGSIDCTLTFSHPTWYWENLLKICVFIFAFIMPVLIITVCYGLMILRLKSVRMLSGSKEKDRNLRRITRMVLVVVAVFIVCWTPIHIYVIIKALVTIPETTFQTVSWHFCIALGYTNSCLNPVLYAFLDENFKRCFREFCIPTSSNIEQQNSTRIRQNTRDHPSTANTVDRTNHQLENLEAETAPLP
The target in assay [3] is Sodium-dependent serotonin transporter (Homo sapiens, UniProt P31645).
Chain of Sodium-dependent serotonin transporter (P31645 whole entry): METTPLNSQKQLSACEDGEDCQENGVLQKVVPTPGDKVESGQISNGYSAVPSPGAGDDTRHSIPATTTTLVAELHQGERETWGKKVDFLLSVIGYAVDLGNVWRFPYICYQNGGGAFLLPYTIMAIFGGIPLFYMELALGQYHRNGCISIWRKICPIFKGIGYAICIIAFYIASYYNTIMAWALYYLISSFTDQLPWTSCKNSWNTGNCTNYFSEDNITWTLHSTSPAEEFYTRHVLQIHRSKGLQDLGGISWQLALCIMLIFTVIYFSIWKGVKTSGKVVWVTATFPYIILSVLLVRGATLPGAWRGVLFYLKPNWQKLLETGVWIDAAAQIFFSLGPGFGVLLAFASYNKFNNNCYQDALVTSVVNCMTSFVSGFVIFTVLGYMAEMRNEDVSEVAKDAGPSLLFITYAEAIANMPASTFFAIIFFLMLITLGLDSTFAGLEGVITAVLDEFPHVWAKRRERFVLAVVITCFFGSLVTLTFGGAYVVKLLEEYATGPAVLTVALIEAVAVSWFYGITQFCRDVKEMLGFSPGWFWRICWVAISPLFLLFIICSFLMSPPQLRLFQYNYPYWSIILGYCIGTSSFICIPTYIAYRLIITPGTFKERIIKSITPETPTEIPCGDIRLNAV
The target of assay [4] is cGMP-inhibited 3',5'-cyclic phosphodiesterase 3A (Homo sapiens, UniProt Q14432). The assay is classed as functional.
Chain of cGMP-inhibited 3',5'-cyclic phosphodiesterase 3A (Q14432 whole entry): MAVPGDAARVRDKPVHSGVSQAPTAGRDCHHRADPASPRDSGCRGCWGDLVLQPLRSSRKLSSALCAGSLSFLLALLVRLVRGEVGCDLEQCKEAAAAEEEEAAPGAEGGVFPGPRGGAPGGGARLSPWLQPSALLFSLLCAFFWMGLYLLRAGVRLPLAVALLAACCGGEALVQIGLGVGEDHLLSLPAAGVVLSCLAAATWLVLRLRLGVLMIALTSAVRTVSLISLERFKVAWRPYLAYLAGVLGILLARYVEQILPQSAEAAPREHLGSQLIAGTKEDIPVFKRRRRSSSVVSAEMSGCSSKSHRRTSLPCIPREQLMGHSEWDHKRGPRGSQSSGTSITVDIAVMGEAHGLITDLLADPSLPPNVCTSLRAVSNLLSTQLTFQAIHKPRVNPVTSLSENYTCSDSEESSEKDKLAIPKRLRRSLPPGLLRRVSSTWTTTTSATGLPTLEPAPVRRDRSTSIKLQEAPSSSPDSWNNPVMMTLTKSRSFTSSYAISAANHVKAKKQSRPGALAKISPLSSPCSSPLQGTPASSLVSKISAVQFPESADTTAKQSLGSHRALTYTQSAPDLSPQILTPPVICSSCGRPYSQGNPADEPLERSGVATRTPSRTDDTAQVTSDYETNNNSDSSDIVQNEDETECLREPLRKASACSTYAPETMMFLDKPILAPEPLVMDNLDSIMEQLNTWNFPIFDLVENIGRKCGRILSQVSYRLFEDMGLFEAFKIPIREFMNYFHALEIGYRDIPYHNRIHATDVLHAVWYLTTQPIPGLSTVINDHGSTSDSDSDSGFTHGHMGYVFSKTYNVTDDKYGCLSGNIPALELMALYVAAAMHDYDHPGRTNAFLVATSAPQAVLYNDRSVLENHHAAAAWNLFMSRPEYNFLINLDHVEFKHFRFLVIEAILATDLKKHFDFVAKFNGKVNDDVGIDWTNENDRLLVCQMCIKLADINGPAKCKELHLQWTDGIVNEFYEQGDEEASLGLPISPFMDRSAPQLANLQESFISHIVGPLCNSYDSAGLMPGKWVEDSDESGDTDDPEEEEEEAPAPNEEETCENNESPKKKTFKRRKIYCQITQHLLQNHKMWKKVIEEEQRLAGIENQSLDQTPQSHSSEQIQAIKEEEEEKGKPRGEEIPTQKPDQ
Assay [5] concerns the target T2, Muscarinic acetylcholine receptor M2 (Homo sapiens, UniProt P08172).
T2 sequence (P08172 whole entry): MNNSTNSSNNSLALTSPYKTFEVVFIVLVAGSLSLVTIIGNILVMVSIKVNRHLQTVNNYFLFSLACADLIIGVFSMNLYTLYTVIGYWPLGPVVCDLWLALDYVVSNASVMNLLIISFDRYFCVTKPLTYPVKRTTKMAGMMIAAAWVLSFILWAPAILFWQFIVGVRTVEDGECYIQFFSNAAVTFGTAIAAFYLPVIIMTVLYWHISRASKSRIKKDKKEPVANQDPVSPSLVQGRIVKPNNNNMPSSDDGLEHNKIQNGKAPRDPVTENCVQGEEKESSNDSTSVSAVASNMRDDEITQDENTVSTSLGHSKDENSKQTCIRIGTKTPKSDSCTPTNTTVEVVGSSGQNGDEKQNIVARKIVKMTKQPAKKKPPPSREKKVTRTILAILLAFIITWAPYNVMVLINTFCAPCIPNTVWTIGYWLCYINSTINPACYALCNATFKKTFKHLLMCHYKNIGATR
The assay is classed as functional, cell-based.

For another assay, the target named is T3, Estrogen receptor (Homo sapiens, UniProt P03372).
T3 sequence (P03372 whole entry): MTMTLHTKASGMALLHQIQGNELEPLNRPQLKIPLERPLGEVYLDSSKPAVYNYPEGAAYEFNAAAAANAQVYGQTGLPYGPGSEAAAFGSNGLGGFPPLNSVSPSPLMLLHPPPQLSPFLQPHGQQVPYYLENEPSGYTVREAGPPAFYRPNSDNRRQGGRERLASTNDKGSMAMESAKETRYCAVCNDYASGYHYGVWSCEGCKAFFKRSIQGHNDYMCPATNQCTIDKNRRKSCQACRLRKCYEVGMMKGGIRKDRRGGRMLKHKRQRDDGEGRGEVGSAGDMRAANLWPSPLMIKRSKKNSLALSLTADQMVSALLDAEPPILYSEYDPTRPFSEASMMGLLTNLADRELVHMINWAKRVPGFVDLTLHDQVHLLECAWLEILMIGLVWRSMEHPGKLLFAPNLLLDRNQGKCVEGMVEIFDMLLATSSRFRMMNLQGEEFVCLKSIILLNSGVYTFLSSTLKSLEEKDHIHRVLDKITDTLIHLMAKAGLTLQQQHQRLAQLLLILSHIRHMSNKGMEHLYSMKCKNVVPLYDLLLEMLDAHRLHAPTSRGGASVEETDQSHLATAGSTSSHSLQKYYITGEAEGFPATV

The next assay has as its target T4, Glucocorticoid receptor (Homo sapiens, UniProt P04150).
T4 sequence (P04150 whole entry): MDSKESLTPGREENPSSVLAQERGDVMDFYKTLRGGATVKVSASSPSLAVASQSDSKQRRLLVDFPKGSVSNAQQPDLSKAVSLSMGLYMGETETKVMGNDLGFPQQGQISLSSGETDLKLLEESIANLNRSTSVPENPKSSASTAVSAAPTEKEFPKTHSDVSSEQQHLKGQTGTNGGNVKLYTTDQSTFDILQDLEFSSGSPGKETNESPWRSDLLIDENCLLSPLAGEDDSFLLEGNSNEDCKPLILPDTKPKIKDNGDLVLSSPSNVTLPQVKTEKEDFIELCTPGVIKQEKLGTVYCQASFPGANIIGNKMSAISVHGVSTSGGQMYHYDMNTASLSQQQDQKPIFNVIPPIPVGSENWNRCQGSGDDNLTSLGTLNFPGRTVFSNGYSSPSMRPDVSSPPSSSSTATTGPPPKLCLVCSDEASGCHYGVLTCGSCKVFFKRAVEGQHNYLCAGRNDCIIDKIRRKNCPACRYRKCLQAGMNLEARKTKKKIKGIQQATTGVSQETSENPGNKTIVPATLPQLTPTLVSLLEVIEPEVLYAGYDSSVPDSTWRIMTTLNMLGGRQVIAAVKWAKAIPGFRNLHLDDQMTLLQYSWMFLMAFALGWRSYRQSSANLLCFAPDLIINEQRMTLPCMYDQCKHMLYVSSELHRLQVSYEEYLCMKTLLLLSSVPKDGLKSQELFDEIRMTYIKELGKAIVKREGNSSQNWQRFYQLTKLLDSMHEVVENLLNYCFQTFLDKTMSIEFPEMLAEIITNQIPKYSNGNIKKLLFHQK
Further: assay procedure not described here.

Chain of 3',5'-cyclic-AMP phosphodiesterase 4D (Q08499 whole entry): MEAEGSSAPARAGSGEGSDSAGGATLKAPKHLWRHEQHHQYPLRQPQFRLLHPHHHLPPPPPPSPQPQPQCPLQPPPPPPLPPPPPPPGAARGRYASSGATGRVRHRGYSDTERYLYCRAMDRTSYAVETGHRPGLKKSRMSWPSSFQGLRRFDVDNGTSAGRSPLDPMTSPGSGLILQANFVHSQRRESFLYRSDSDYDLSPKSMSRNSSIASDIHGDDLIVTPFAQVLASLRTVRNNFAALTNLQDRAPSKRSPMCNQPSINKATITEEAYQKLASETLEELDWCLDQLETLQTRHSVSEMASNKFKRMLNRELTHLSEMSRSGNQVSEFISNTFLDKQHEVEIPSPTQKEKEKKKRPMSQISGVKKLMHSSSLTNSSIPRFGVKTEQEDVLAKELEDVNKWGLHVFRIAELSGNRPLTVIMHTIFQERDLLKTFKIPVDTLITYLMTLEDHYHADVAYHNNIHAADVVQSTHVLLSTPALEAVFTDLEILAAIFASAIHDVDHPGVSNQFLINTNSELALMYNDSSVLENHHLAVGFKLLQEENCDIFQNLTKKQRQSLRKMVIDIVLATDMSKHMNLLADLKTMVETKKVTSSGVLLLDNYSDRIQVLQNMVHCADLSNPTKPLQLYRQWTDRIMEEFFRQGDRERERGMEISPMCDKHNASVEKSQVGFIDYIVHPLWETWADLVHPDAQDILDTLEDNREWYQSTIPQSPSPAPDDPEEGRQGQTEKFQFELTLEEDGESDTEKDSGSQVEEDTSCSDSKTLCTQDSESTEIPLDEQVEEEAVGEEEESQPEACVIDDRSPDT

For orientation: AC50 means the concentration at which the activity in the assay is half-maximal. Higher therefore signals activity only at high concentration. On to `COc1ccc(C(=O)NCc2ccc(OCCN(C)C)cc2)cc1OC` [ITOPRIDE], for which the AC50 (in assay [1]; in assay [2]; on Mu-type opioid receptor; in assay [3]; in assay [4]; in assay [5]) was more than 30 µM throughout. Besides, the AC50 at Estrogen receptor and on Glucocorticoid receptor was more than 30 µM throughout.

As to `O=C(C[S+]([O-])C(c1ccccc1)c1ccccc1)NO` (configuration not stated), the AC50 in assay [1] was 8.9 µM; in assay [2], more than 30 µM; at Mu-type opioid receptor it was more than 30 µM; in assay [3] it was more than 30 µM; in assay [4] it was more than 10 µM; in assay [5], more than 30 µM. Further, the AC50 on Estrogen receptor and at Glucocorticoid receptor was more than 30 µM each time.

For `COc1ccc2cccc(CCNC(C)=O)c2c1` [AGOMELATINE], the AC50 in assay [1] was more than 30 µM; in assay [2], more than 30 µM; on Mu-type opioid receptor, more than 30 µM; in assay [3] it was more than 10 µM; in assay [4], more than 30 µM; in assay [5] it was more than 30 µM. For the same compound, the AC50 on Estrogen receptor and on Glucocorticoid receptor was more than 30 µM throughout.

As to `O=C(OCCN1CCOCC1)c1cccnc1Nc1cccc(C(F)(F)F)c1` [MORNIFLUMATE], the half-maximal activity concentration (AC50) was 4.3 µM in assay [1]; more than 30 µM in assay [2]; more than 30 µM at Mu-type opioid receptor; more than 30 µM in assay [3]; more than 30 µM in assay [4]; more than 30 µM in assay [5]. The AC50 at Estrogen receptor and at Glucocorticoid receptor was more than 30 µM each time.
